Measurements from patent publication US10512700B2, “Radiohalide-labeled targeted diagnostics and therapeutics” (Memorial Sloan Kettering Cancer Center, priority 2014, dated 2019).
Several values for one entry are separate records, joined by “and”; a condition that tells them apart may be missing. Equal values may be shown once.

How the values were obtained:
[1] = tested on: orthotopic U251 MG tumor-bearing mice; assay: Autoradiography using C-2d; format: in vivo, mouse
Protocol: U251 MG glioblastoma cells (5×10^4 in 2 μL of PBS) were orthotopically implanted in athymic nude mice, using a stereotaxic device, and the tumors allowed to grow for approximately 4 weeks. […] Additionally, healthy mice were also injected with 500 μCi C-2d. After 2 h of circulation time after the C-2d injection, the mice were sacrificed. Liver, tumor, muscle, and brain tissues were excised and embedded in O.C.T. compound (Sakura Finetek, Torrance, Calif.) and frozen at −20° C., and a series of 8 μm frozen sections was cut and mounted on microscope slides. To determine radiotracer distribution, digital autoradiography was performed by placing tissue sections in a film cassette against a phosphor image plate (BASMS-2325; Fujifilm) for 48 h at −20° C. Phosphor imaging plates were read at a pixel resolution of 25 μm with a Typhoon 7000IP plate reader (GE Healthcare, Piscataway, N.J.) (images not shown). After autoradiographic exposure, the same frozen sections were then used for […] staining. Areas of brain slides containing tumor tissue were identified using the H&E staining and then overlaid with the autoradiographic data (images not shown). Intensity of tumor areas and non-tumor areas were then quantified using ImageJ 1.47 u (see FIGS. 5A and 5B).

[2] = tested on: U251 MG tumor bearing mice; assay: Biodistribution; format: in vivo, mouse; conditions: C-2d, i.v., 2 h post injection
Protocol: Biodistribution studies were conducted on female nude mice (8-10 weeks old and 20-25 g in weight, n=21) bearing U251 MG subcutaneous xenografts. The radiolabeled preparation (20-30 μCi of compound C-2d (^131I) in 200 μL of a solution 90% PBS 10% PEG300) was administrated via the lateral tail vein. The compound was allowed to circulate for 2 h post injection at which time mice were sacrificed and organs were harvested (n=3). The radioactive content in tissue of interest (blood, tumor, muscle, bone, liver, spleen, kidney, heart, lung, pancreas, brain, skin, small intestine, large intestine, stomach, tail, thyroid and feces) was measured on a Wizard 2470 Automatic Gamma Counter, and the tissue-associated activity was calculated as the mean % ID/g using the following formula: [(activity in the target organ/grams of tissue)/injected dose]×100%.
Biodistribution studies were performed in subcutaneous U251 MG xenograft bearing athymic nude mice (n=12). Mice were divided in two groups (blocked and unblocked) and administered with C-2f (approximately 50 μCi, 45 mCi/μmol in […], 10% EtOH in 0.9% sterile saline) via tail vein injection. […] Mice were sacrificed by CO2 asphyxiation at 120 min post injection and major organs were collected, weighed, and counted in a WIZARD^2 automatic γ-counter (PerkinElmer, Boston, Mass.). The radiopharmaceutical uptake was expressed as a percentage of injected dose per gram (% ID/g) using the following formula: [(activity in the target organ/grams of tissue)/injected dose]×100%.

[3] = autoradiography, mice that received no olaparib

signal intensity in tumor tissue vs healthy brain tissue [1, 3]: 15.7 fold
signal intensity in tumor tissue vs muscle tissue [1, 3]: 6.2 fold
autoradiography signal, muscle ([1]; with olaparib treatment): 248±72 AU
autoradiography signal, tumor tissue ([1]; with olaparib treatment): 536±87 AU
autoradiography signal, muscle ([1]; without olaparib treatment): 192±20 AU
autoradiography signal, tumor tissue ([1]; without olaparib treatment): 1222±203 AU
% ID/g, Blood [2]: 0.27 % ID/g
% ID/g, Bone [2]: 0.07 % ID/g
% ID/g, Brain [2]: 0.011±0.003 % ID/g and 0.01 % ID/g
% ID/g, Feces [2]: 4.34 % ID/g
% ID/g, Heart [2]: 0.16 % ID/g
% ID/g, Kidneys [2]: 0.61 % ID/g
% ID/g, Large intestine [2]: 1.26 % ID/g
% ID/g, Liver [2]: 2.34 % ID/g
% ID/g, Lung [2]: 0.28 % ID/g
% ID/g, Muscle [2]: 0.03±0.01 % ID/g and 0.03 % ID/g
% ID/g, Pancreas [2]: 0.15 % ID/g
% ID/g, Skin [2]: 0.25 % ID/g
% ID/g, Small intestine [2]: 11.70 % ID/g
% ID/g, Spleen [2]: 0.40 % ID/g
% ID/g, Stomach [2]: 0.88 % ID/g
% ID/g, Tail [2]: 0.60 % ID/g
% ID/g, Thyroid [2]: 0.24 % ID/g
% ID/g, Tumor [2]: 0.43±0.06 % ID/g and 0.43 % ID/g
Structure (SMILES): O=C(c1ccc([131I])cc1)N1CCN(C(=O)c2cc(Cc3n[nH]c(=O)c4ccccc34)ccc2F)CC1 [C-2d (^131I)]
reduction in intensity of the autoradiography signal in tumor tissue ([1]; mice treated with olaparib): 65%
